Experiment: Rat pharmacokinetics after intravenous and oral dosing (Example 3)
Format: in vivo
Settings: Alderley Park Han Wistar; male rat (Han Wistar), oral 2 mg/kg vs intravenous 2 mg/kg, whole blood; read-out: F (bioavailability)
Experimental: The rat pharmacokinetic (PK) parameters blood clearance (CL), volume of distribution (Vdss) and half life (t½) are calculated by determining the concentration (exposure) of test compound in whole blood samples taken from rats at various, defined time points subsequent to the intra-venous dosing (administration) of formulated test compound. The rat PK parameter bioavailability (F) is calculated by determining the concentration (exposure) of test compound in whole blood samples taken from rats at various, defined time-points subsequent to the oral dosing (administration) of formulated test compound and then by comparison of the ratio of the dose normalized total oral exposure (AUCpo) with the dose normalized total intra-venous exposure (AUCiv). Fraction absorbed (Fabs) is a secondary PK parameter that is often calculated from a knowledge of the clearance (CL) and bioavailability (F) of a test compound. […]
Calibration standard samples are prepared by addition of known amounts of test compound to blank diluted (1:1) blood samples. […] Following centrifugation, sample and calibration standard supernatants are analysed for test compound concentration by HPLC with MS/MS (triple quad mass spectrometry) detection. Quantification of test compound concentrations in the blood samples taken from the rats is achieved by reference to a standard curve constructed from the calibration standard samples. […]

`CCc1nnc(C(C)C)n1C1CCN([C@H](C)C[C@@H](c2cc(F)cc(F)c2)C2CCN(S(C)(=O)=O)CC2)CC1` (single isomer, unassigned) gave a bioavailability of 28%.

In the case of `Cc1nnc(C(C)C)n1C1CCN(C(C)C[C@@H](c2cc(F)cc(F)c2)C2CCN(S(C)(=O)=O)CC2)CC1` (single isomer, unassigned) [Comparator Compound A], the bioavailability is reported as 1%.

Reference: patent publication US20100093795A1, “Piperidine Derivative Used for Treating Chemokine Receptor 5 Mediated Diseases” (priority 2006, published 2010)
